“And” between values parts separate entries of the source, which are not always exact repeats. Equal values may be shown once.
Assays:
hCPR [1] = target: T1, hCPR (Homo sapiens, UniProt P16435); test: Isothermal titration calorimetry of oxidised CPR with nucleotides in phosphate-free 100 mM BES, pH 7.0, 25 °C, single-site model; Kd = 1/Kobs.; type: binding
T1 construct: gene POR
T1 sequence (P16435 64-677): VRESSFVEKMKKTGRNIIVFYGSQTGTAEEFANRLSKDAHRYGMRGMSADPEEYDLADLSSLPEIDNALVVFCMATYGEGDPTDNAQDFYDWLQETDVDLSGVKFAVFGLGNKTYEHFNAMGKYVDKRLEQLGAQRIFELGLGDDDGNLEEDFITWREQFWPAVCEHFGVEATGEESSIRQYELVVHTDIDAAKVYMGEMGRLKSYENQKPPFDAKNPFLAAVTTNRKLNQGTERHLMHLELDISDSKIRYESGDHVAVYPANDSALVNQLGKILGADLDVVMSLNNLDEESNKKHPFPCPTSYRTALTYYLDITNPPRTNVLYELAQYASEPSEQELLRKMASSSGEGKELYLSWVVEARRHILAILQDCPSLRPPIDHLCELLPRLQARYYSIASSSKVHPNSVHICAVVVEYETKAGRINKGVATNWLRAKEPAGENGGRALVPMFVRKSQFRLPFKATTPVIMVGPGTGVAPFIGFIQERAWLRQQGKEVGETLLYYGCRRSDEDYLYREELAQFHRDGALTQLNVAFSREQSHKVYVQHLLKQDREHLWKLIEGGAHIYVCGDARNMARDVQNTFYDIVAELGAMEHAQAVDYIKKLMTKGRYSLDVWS
Description: Figure 3 represents the ITC binding isotherms resulting from the titration of AgCPR with 2′, 5′-ADP, NADP+ and 2′-AMP.

hCPR [2] = target: T1, hCPR; test: Inhibition of cytochrome c (50 µM) reduction in phosphate-free 0.1 M Tris-HCl pH 7.7/0.1 M KCl, 25 °C, started with 12 µM (AgCPR) or 5 µM (hCPR) NADPH.; type: biochemical; settings: SEM; read-out: IC50 µM (±S.E.), Tris Buffer
Experimental: (§3) Measurement of cytochrome c reduction was carried out at 25°C with 50 µM cytochrome c and 0.75 pmol purified AgCPR or hCPR essentially as described [17] using 0.3 M potassium phosphate buffer, pH 7.7 or 0.1 M Tris-HCl, pH 7.7/0.1 M KCl, and different concentrations of 2′, 5′-ADP, 2′-AMP, NADP or diphenyliodonium chloride (all from Sigma-Aldrich, UK).

AgCPR [3] = target: T2, AgCPR (Anopheles gambiae, UniProt Q86QH5); test: Inhibition of cytochrome c (50 µM) reduction in 0.3 M potassium phosphate pH 7.7, 25 °C, started with 30 µM NADPH (AgCPR).; type: biochemical; parameters: Δ63AgCPR: soluble, membrane anchor (amino acids 2-63) deleted; His-tag removed by thrombin; expressed in E. coli; settings: SEM; read-out: IC50 µM (±S.E.), Phosphate Buffer
Experimental: as §3

AgCPR [4] = target: T2, AgCPR; test: Inhibition of cytochrome c (50 µM) reduction in phosphate-free 0.1 M Tris-HCl pH 7.7/0.1 M KCl, 25 °C, started with 12 µM (AgCPR) or 5 µM (hCPR) NADPH.; type: biochemical; parameters: Δ63AgCPR: soluble, membrane anchor (amino acids 2-63) deleted; His-tag removed by thrombin; expressed in E. coli; settings: SEM; read-out: IC50 µM (±S.E.), Tris Buffer
Experimental: as §3

[5] = target: T3, AgCPR (Anopheles gambiae NADPH-cytochrome P450 oxidoreductase) (Anopheles gambiae, UniProt Q86QH5); test: Isothermal titration calorimetry of nucleotide ligands with AgCPR; type: binding; settings: for Kobs / TΔS / n (binding stoichiometry) / ΔG / ΔH: 25°C, 100 mM BES pH 7.0
T3 sequence (Q86QH5 64-679): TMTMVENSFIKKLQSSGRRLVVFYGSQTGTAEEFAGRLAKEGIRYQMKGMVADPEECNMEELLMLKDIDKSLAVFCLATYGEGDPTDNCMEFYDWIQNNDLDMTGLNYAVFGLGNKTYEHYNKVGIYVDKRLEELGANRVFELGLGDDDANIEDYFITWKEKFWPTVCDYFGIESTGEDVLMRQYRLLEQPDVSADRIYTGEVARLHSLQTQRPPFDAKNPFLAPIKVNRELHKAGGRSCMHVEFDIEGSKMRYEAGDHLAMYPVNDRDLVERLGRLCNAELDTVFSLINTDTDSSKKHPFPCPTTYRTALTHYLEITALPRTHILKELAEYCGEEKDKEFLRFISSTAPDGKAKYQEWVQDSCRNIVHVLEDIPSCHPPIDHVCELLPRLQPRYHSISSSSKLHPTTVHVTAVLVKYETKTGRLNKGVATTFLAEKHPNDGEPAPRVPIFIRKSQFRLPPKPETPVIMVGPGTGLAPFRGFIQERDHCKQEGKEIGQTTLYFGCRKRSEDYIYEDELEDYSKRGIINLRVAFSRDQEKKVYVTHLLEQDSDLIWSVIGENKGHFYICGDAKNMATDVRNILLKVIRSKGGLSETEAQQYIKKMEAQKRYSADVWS
Experimental: (§1) ITC experiments were performed using a ITC200 microcalorimeter (Microcal Inc/GE Healthcare). Protein samples were dialysed into 100 mM BES; pH 7.0 from 50% glycerol stocks stored at −20°C. The concentrations of all the proteins were determined by using Bradford assay. Samples were centrifuged at 13,000×g for 10 min and degassed at 23°C (2°C below the temperature at which the experiments were performed). All experiments were performed at 25°C. Typically, the protein concentration in the cell was 10–20 µM whilst ligand concentrations were in the range of 100–1000 µM. The data analysed using Origin 7.0 (Microcal) after subtracting the heats of dilution obtained from parallel experiments performed by injecting the nucleotide into the buffer. Thermodynamic parameters n (stoichiometry), K d (1/K a, the association constant), and Δ°H (enthalpy change) were obtained by nonlinear least-squares fitting of experimental data using the single-site binding model. The free energy of binding (ΔG°) and entropy change (ΔS°) were obtained using eqs 1 and 2.

hCPR (human CPR) = target: T4, hCPR (human CPR) (Homo sapiens, UniProt P16435); test: Isothermal titration calorimetry of nucleotide ligands with hCPR; type: binding; settings: ITC, 25°C, 100 mM BES pH 7.0
T4 sequence (P16435 43-677 limits assumed): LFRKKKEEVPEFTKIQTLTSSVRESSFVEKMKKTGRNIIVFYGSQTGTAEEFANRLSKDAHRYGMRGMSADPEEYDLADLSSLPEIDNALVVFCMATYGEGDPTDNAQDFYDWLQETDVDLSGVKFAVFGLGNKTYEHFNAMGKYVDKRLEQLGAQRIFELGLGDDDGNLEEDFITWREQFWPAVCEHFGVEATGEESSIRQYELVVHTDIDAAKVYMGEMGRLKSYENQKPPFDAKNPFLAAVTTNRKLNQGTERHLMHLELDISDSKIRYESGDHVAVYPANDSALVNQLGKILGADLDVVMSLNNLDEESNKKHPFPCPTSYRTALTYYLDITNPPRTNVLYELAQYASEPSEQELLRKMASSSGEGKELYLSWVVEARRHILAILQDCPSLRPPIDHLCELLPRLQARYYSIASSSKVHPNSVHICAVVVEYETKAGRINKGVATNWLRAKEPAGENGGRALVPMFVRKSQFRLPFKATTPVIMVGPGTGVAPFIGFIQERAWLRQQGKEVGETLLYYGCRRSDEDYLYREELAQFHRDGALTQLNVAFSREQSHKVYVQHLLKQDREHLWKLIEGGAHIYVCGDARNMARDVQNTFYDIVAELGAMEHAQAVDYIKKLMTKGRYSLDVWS
Experimental: as §1

AgCPR [6] = target: T2, AgCPR; test: Inhibition of cytochrome c reduction by AgCPR; type: biochemical
Experimental: as §3

hCPR [7] = target: T5, hCPR (Homo sapiens, UniProt P16435); test: Inhibition of cytochrome c reduction by hCPR; type: biochemical
T5 sequence (P16435 43-677 limits assumed): T4 sequence (P16435 43-677 limits assumed)
Experimental: as §3

[8] = target: methionine synthase reductase; settings: read-out: low affinity binding mode (Kd); cited from earlier work
[9] = target: T6, isolated apo-human FMN-binding domain of CPR (Homo sapiens, UniProt P16435); test: Isothermal titration calorimetry of FMN with apo-human FMN-binding domain; settings: ITC, 25°C, 100 mM BES
T6 sequence (P16435 80-224 limits assumed): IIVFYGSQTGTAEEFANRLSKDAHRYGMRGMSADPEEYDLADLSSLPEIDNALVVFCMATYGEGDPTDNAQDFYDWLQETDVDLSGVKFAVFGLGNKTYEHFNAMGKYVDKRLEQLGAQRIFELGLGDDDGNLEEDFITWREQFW
Experimental: as §1
(§2) The binding affinity of FMN to the isolated FMN-binding domains of both A. gambiae and hCPR were also examined by titration of the apo-FMN binding domains (Figure 4). Both isotherms show reasonable binding and saturation of the apo-proteins is achieved with excess flavin.

[10] = target: isolated apo-A. gambiae FMN-binding domain of CPR (Anopheles gambiae, UniProt Q86QH5); test: Isothermal titration calorimetry of FMN with apo-A. gambiae FMN-binding domain; settings: ITC
Experimental: as §1, §2

AgCPR [11] = target: T2, AgCPR; test: Cytochrome c and NADPH steady-state kinetics, AgCPR; type: biochemical; settings: phosphate buffer, 50 µM NADPH, 25°C; read-out: Km cytc
Experimental: (§4) The rate of change of absorbance of horse heart cytochrome c (Sigma-Aldrich, UK) at 550 nm was measured at 25°C using a Cary 4000 UV-Visible spectrophotometer essentially as described [17]. For cytochrome c kinetics, 0.75 pmol purified AgCPR or hCPR was pre-incubated with 0–110 µM cytochrome c (dissolved in 0.3 M potassium phosphate buffer; pH 7.7 or 0.1 M Tris-HCl, pH 7.7/0.1 M KCl) in a total volume of 500 µl for 2 min at 25°C.

hCPR [12] = target: T5, hCPR; test: Cytochrome c and NADPH steady-state kinetics, hCPR; type: biochemical; settings: phosphate buffer, 50 µM NADPH, 25°C; read-out: Km cytc
Experimental: as §4

[13] = target: human anchorless NADPH-cytochrome P450 oxidoreductase (hCPR) (human) (UniProt P16435)
[14] = target: Δ63AgCPR (Anopheles gambiae NADPH-cytochrome P450 oxidoreductase lacking the N-terminal membrane anchor) (Anopheles gambiae)
[15] = IC50 (±S.E.), inhibition of cytochrome c reduction, Human CPR, Phosphate Buffer (0.3 M potassium phosphate pH 7.7), 15 µM NADPH, 50 µM cytochrome c, 25°C
[16] = read-out: IC50 (±S.E.), inhibition of cytochrome c reduction
[17] = 25°C, 100 mM BES, A. gambiae apo-FMN domain

Sequence of horse heart cytochrome c (P00004 whole entry): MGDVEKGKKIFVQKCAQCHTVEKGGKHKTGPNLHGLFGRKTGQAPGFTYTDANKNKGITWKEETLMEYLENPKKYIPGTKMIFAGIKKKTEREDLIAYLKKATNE
Sequence of human anchorless NADPH-cytochrome P450 oxidoreductase (hCPR) (human) (P16435 2-21): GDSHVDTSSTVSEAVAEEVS

Compound: Nc1ncnc2c1ncn2[C@@H]1O[C@H](COP(=O)(O)O)[C@@H](O)[C@H]1OP(=O)(O)O [2′,5′-ADP, adenosine 2′,5′-diphosphate]
- Kd (hCPR [1]): 0.038 ± 0.0038 µM
- IC50 (hCPR [2]): 10 ± 1 µM
- IC50 (AgCPR [3]): 262 ± 18 µM
- IC50 (AgCPR [4]): 62 ± 7 µM

Compound: Nc1ncnc2c1ncn2[C@@H]1O[C@H](COP(=O)(O)O)[C@@H](O)[C@H]1OP(=O)(O)O [2′,5′-ADP]
- Kd [5]: 0.41 ± 0.018 µM
- binding (Kd) to AgCPR weaker than hCPR (fold) ([5]; ITC): ~10 fold
- Kobs ([5]; ITC): 24.4±1.07 ×10^5 M^−1
- TΔS ([5]; ITC): -4.73 kcal/mol
- n (binding stoichiometry) ([5]; ITC): 1.01±0.03
- ΔG ([5]; ITC): -8.40 kcal/mol
- ΔH ([5]; ITC): -13.13 kcal/mol and -13.13 ± 0.35 kcal/mol
- Kobs (hCPR (human CPR)): 263±26.3 ×10^5 M^−1
- TΔS (hCPR (human CPR)): -9.97 kcal/mol
- n (binding stoichiometry) (hCPR (human CPR)): 1.00±0.02
- ΔG (hCPR (human CPR)): -10.39 kcal/mol
- ΔH (hCPR (human CPR)): -20.36 kcal/mol and -20.36 ± 0.53 kcal/mol
- IC50 of AgCPR relative to hCPR (fold higher) (AgCPR [6]; both phosphate and phosphate-free buffer): 6–10 fold
- affinity for mosquito CPR lower than human (fold, from IC50) (AgCPR [6]; phosphate-free Tris buffer): 6 fold
- IC50 (hCPR [7]; [15]): 28 ± 2 µM
- Kd [8]: ~0.5 µM

Compound: Nc1ncnc2c1ncn2[C@@H]1O[C@H](CO)[C@@H](O)[C@H]1OP(=O)(O)O [2′-AMP, adenosine 2′-monophosphate]
- Kd (hCPR [1]): 1.6 ± 0.44 µM
- IC50 (hCPR [2]): 280 ± 25 µM
- IC50 (AgCPR [3]): 1090 ± 202 µM
- IC50 (AgCPR [4]): 384 ± 27 µM

Compound: Nc1ncnc2c1ncn2[C@@H]1O[C@H](CO)[C@@H](O)[C@H]1OP(=O)(O)O [2′-AMP]
- Kd [5]: 4 ± 0.18 µM
- Kobs ([5]; ITC): 2.51±0.11 ×10^5 M^−1
- TΔS ([5]; ITC): -2.19 kcal/mol
- n (binding stoichiometry) ([5]; ITC): 1.01±0.22
- ΔG ([5]; ITC): -5.47 kcal/mol
- ΔH ([5]; ITC): -7.66 ± 1.98 kcal/mol
- Kobs (hCPR (human CPR)): 6.15±1.69 ×10^5 M^−1
- TΔS (hCPR (human CPR)): -3.21 kcal/mol
- n (binding stoichiometry) (hCPR (human CPR)): 1.02±0.06
- ΔG (hCPR (human CPR)): -7.86 kcal/mol
- ΔH (hCPR (human CPR)): -11.07 ± 0.88 kcal/mol
- IC50 (AgCPR [6]; [16]): 468 µM
- IC50 (hCPR [7]; [15]): 1090 µM
- IC50 (hCPR [7]; [16]): 468 ± 41 µM

Compound: Cc1cc2nc3c(=O)[nH]c(=O)nc-3n(C[C@H](O)[C@H](O)[C@H](O)COP(=O)(O)O)c2cc1C [FMN, flavin mononucleotide]
- Kd [9]: 0.023 ± 0.0009 µM
- Kobs [9]: 438±17.5 ×10^5 M^−1
- n (binding stoichiometry) [9]: 1.00±0.01
- ΔG [9]: -10.28 kcal/mol
- ΔH [9]: -19.46 ± 0.35 kcal/mol
- FMN binding to A. gambiae FMN domain weaker than human domain (fold) [10]: ~4 fold
- Kd [10, 17]: 0.083 ± 0.002 µM
- Kobs [10, 17]: 120±3.19 ×10^5 M^−1
- TΔS [10, 17]: -3.58 kcal/mol
- n (binding stoichiometry) [10, 17]: 0.98±0.01
- ΔG [10, 17]: -9.60 kcal/mol
- ΔH [10, 17]: -13.18 ± 0.19 kcal/mol

Compound: c1ccc([I+]c2ccccc2)cc1 [diphenyliodonium chloride]
- IC50 (AgCPR [6]): 28 ± 2 µM
- AgCPR more sensitive to inhibition than hCPR (fold) (AgCPR [6]; cytochrome c reduction, phosphate buffer): ~10 fold

Compound: NADP^+
- Kobs (hCPR (human CPR)): 145±24.5 ×10^5 M^−1
- TΔS (hCPR (human CPR)): -8.91 kcal/mol
- n (binding stoichiometry) (hCPR (human CPR)): 1.01±0.12
- ΔG (hCPR (human CPR)): -10.55 kcal/mol
- ΔH (hCPR (human CPR)): -19.46 kcal/mol and -19.46 ± 2.92 kcal/mol

Compound: cytochrome c: horse heart cytochrome c, surrogate electron acceptor for measuring diflavin reductase activity
- Km (AgCPR [11]): 23 µM
- Km (hCPR [12]): 19 µM

Compound: horse heart cytochrome c (from UniProt P00004 1-105) (natural protein)
- Km^cytc of NADPH-dependent cytochrome c reduction (steady state, 0-110 µM cytochrome c, phosphate buffer, 25°C) [13]: 19 µM
- Km^cytc of NADPH-dependent cytochrome c reduction (steady state, 0-110 µM cytochrome c, phosphate buffer, 25°C) [14]: 23 µM
